Measured values published in PMC12624316, “Studies of α′,β′‐Epoxyketone Synthesis by Small‐Molecule Flavins and Flavoenzymes” (Angewandte Chemie (International Ed. in English), 2025).

Target: T1, EpxF (Goodfellowiella coeruleoviolacea, UniProt V5RNC8)
T1 construct: expressed in Escherichia coli; homodimer; residues 253-264 and 336-346 not defined in the density
T1 sequence (V5RNC8 2-563): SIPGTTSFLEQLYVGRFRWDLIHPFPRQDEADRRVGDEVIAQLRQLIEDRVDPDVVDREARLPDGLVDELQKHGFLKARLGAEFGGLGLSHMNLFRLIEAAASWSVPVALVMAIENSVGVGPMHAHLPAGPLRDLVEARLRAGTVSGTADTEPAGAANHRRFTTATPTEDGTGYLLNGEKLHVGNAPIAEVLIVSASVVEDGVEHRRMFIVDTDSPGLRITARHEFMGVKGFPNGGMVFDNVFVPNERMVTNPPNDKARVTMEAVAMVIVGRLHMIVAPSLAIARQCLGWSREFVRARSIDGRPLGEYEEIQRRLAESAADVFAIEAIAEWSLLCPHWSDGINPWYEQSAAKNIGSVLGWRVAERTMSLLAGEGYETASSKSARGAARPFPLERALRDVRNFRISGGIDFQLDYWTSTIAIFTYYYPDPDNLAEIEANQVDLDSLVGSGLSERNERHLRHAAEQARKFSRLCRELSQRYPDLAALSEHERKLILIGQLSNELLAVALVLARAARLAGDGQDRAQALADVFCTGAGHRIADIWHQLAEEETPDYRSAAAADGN
Test: X-ray crystal structure, […] Å
Type: binding
Conditions: FAD bound in both subunits of the homodimer, adenine anchored in the dimer interface

Cc1cc2nc3c(=O)[nH]c(=O)nc-3n(C[C@H](O)[C@H](O)[C@H](O)COP(=O)(O)OP(=O)(O)OC[C@H]3O[C@@H](n4cnc5c(N)ncnc54)[C@H](O)[C@@H]3O)c2cc1C [FAD]
X-ray crystal structure, 2.4 Å: electron density map depicts FAD bound at two distinct catalytic centers
